Where “and” joins values, the source holds several entries; their conditions need not be identical. Equal entries are not always repeated.

The assay concerns oxazolone-induced mouse ear swelling. The assay is described as follows: Model for inhibition of topical inflammation (oxazolone-induced mouse ear swelling). Type of assay: in vivo, BALB/c male mice. The settings on record: topical to right ear, ear thickness 24 hours after oxazolone challenge. The method, then:
Left ears were untreated. The thickness of both ears of each animal was measured with a Dyer model micrometer gauge 24 hours after oxazolone challenge, and the net increase in thickness of right ears versus left ears was calculated for each animal. Percent inhibition was calculated according to the formula: [(Iv-It)/Iv]×100, where Iv and It respectively refer to the average net increase in right ear thickness (mm) for vehicle and candidate compound treated mice.

As to `CC(C)c1c(C(=O)Nc2ccccc2)c(-c2ccccc2)c(-c2ccc(F)cc2)n1CC[C@@H]1C[C@@H](O)CC(=O)O1` [Atorvastatin lactone], the “% Inh.” value by setting is: (dose 2 × 0.3 mg) 40%; (dose 2 × 0.3 mg, listed as atorvastatin lactone) 50% and 58% and 40%; (dose 2 × 1 mg) 58%; (dose 2 × 2 mg) 50%.
Turning to `CC(C)c1c(C(=O)Nc2ccccc2)c(-c2ccccc2)c(-c2ccc(F)cc2)n1CC[C@@H](O)C[C@@H](O)CC(=O)O` [Atorvastatin sodium], the “% Inh.” value is, setting by setting: (dose 2 × 0.3 mg) 9%; (dose 2 × 1 mg) 31%; (dose 2 × 2 mg) 63%.
`CC(C)n1c(/C=C/C(O)CC(O)CC(=O)O)c(-c2ccc(F)cc2)c2ccccc21` (stereo not shown) [Fluvastatin sodium]: where the note is “dose 2 × 0.3 mg”, the “% Inh.” value is reported as 28%.
Consider `COc1ccc2c(c1)c(CC(=O)O)c(C)n2C(=O)c1ccc(Cl)cc1` [Indomethacin], for which the “% Inh.” value (dose 2 × 0.3 mg) came out at 44%.
For `O=C([O-])C[C@H](O)C[C@H](O)/C=C/c1c(C2CC2)nc2ccccc2c1-c1ccc(F)cc1.O=C([O-])C[C@H](O)C[C@H](O)/C=C/c1c(C2CC2)nc2ccccc2c1-c1ccc(F)cc1.[Ca+2]` [Pitavastatin calcium], the “% Inh.” value by setting is: (dose 2 × 0.3 mg) 9%; (dose 2 × 2 mg) 60%.
Turning to `CC[C@H](C)C(=O)O[C@H]1C[C@H](O)C=C2C=C[C@H](C)[C@H](CC[C@@H](O)C[C@@H](O)CC(=O)O)[C@H]21` [Pravastatin sodium], the “% Inh.” value (dose 2 × 0.3 mg) came to 24%.
With `CC(C)c1nc(N(C)S(C)(=O)=O)nc(-c2ccc(F)cc2)c1/C=C/[C@@H](O)C[C@@H](O)CC(=O)O` [Rosuvastatin sodium], the “% Inh.” value (dose 2 × 0.3 mg) is recorded as 20%.

For the origin of these results see patent US20080021054A1, “COMPOSITIONS AND TREATMENTS FOR INHIBITING KINASE AND/OR HMG-COA REDUCTASE” (priority 2004, published 2008).
